Where two headings read alike, the source gives them in different places.
Columns and labels:
[1] = biological target: T1, HCV NS3/4A protease complex (BMS strain) (UniProt P27958, C1454S/C1711G, species not given); assay: Recombinant HCV NS3/4A protease complex FRET peptide assay; assay type: biochemical, Hepatitis C virus (HCV), genotype 1a; conditions: NS3/4A BMS strain, activity range class
T1 construct: for H77 and J4L6S; fused on or other part: Three-lysine solubilising tail at the C-terminus of NS4A
From the text: Recombinant HCV NS3/4A Protease Complex FRET Peptide Assay
Serum from an HCV-infected patient was obtained from Dr. T. Wright, San Francisco Hospital. An engineered full-length cDNA (compliment deoxyribonucleic acid) template of the HCV genome (BMS strain) was constructed from DNA fragments obtained by reverse transcription-PCR (RT-PCR) of serum RNA (ribonucleic acid) and using primers selected on the basis of homology between other genotype 1a strains.
The H77 and J4L6S strains were used for production of recombinant NS3/4A protease complexes. […] Briefly, a three-lysine solubilizing tail was added at the 3′-end of the NS4A coding region. […] Briefly, the NS3/4A protease complex expression was induced with 0.5 millimolar (mM) Isopropyl β-D-1-thiogalactopyranoside (IPTG) for 22 hours (h) at 20° C. […] The cells were resuspended in lysis buffer (10 mL/g) consisting of 25 mM N-(2-Hydroxyethyl)piperazine-N′-(2-Ethane Sulfonic acid) (HEPES), pH 7.5, 20% glycerol, 500 mM Sodium Chloride (NaCl), 0.5% Triton X-100, 1 microgram/milliliter (“μg/mL”) lysozyme, 5 mM Magnesium Chloride (MgCl2), 1 μg/ml DnaseI, 5 mM β-Mercaptoethanol (βME), Protease inhibitor—Ethylenediamine Tetraacetic acid (EDTA) free (Roche), homogenized and incubated for 20 minutes (min) at 4° C. The homogenate was sonicated and clarified by ultra-centrifugation at 235000 g for 1 h at 4° C. Imidazole was added to the supernatant to a final concentration of 15 mM and the pH adjusted to 8.0. The crude protein extract was loaded on a Nickel—Nitrilotriacetic acid (Ni-NTA) column pre-equilibrated with buffer B (25 mM HEPES, pH 8.0, 20% glycerol, 500 mM NaCl, 0.5% Triton X-100, 15 mM imidazole, 5 mM βME). The sample was loaded at a flow rate of 1 mL/min. The column was washed with 15 column volumes of buffer C (same as buffer B except with 0.2% Triton X-100). The protein was eluted with 5 column volumes of buffer D (same as buffer C except with 200 mM Imidazole).
NS3/4A protease complex-containing fractions were pooled and loaded on a desalting column Superdex-S200 pre-equilibrated with buffer D (25 mM HEPES, pH 7.5, 20% glycerol, 300 mM NaCl, 0.2% Triton X-100, 10 mM βME). Sample was loaded at a flow rate of 1 mL/min. NS3/4A protease complex-containing fractions were pooled and concentrated to approximately 0.5 mg/ml.
The enzyme was stored at −80° C., thawed on ice and diluted prior to use in assay buffer. […] The sequence of this peptide is loosely based on the NS4A/NS4B natural cleavage site for the HCV NS3 protease except there is an ester linkage rather than an amide bond at the cleavage site. The peptide substrate was incubated with one of the three recombinant NS3/4A protease complexes, in the absence or presence of a compound of the present invention, and the formation of fluorescent reaction product was followed in real time using a Cytofluor Series 4000.
The reagents were as follow: HEPES and Glycerol (Ultrapure) were obtained from GIBCO-BRL. Dimethyl Sulfoxide (DMSO) was obtained from Sigma. β-Mercaptoethanol was obtained from Bio Rad.
Assay buffer: 50 mM HEPES, pH 7.5; 0.15 M NaCl; 0.1% Triton; 15% Glycerol; 10 mM βME. Substrate: 2 μM final concentration (from a 2 mM stock solution in DMSO stored at −20° C.). HCV NS3/4A protease type 1a (1b), 2–3 nM final concentration (from a 5 μM stock solution in 25 mM HEPES, pH 7.5, 20% glycerol, 300 mM NaCl, 0.2% Triton-X100, 10 mM βME).
The assay was performed in a 96-well polystyrene black plate from Falcon.

[2] = system: HCV replicon in Huh7 cells; assay: microbe, parasite or virus in culture; assay type: cell-based, strain 1b; conditions: Hepatitis C virus, Huh-7, 96 h; Huh7 cells expressing HCV replicon, 4 days; activity range class
From the text: Generation of HCV Replicon
This system enabled us to evaluate the effects of our HCV Protease compounds on HCV RNA replication. Briefly, using the HCV strain 1b sequence described in the Lohmann paper (Assession number: AJ238799), an HCV cDNA was generated encoding the 5′ internal ribosome entry site (IRES), the neomycin resistance gene, the EMCV (encephalomyocarditis viurs)-IRES and the HCV nonstructural proteins, NS3-NS5B, and 3′ non-translated region (NTR). In vitro transcripts of the cDNA were transfected into the human hepatoma cell line, Huh7. […] Resulting cell lines were characterized for positive and negative strand RNA production and protein production over time.
Huh7 cells, constitutively expressing the HCV replicon, were grown in Dulbecco's Modified Eagle Media (DMEM) containing 10% Fetal calf serum (FCS) and 1 mg/ml G418 (Gibco-BRL). Cells were seeded the night before (1.5×10^4 cells/well) in 96-well tissue-culture sterile plates. Compound and no compound controls were prepared in DMEM containing 4% FCS, 1:100 Penicillin/Streptomysin, 1:100 L-glutamine and 5% DMSO in the dilution plate (0.5% DMSO final concentration in the assay). Compound/DMSO mixes were added to the cells and incubated for 4 days at 37° C. After 4 days, plates were rinsed thoroughly with Phosphate-Buffered Saline (PBS) (3 times 150 μl). The cells were lysed with 25 μl of a lysis assay reagent containing the FRET peptide (RET S1, as described for the in vitro enzyme assay). The lysis assay reagent was made from 5× cell Luciferase cell culture lysis reagent (Promega #E153A) diluted to 1× with distilled water, NaCl added to 150 mM final, the FRET peptide diluted to 10 μM final from a 2 mM stock in 100% DMSO. The plate was then placed into the Cytofluor 4000 instrument which had been set to 340 nm excitation/490 nm emission, automatic mode for 21 cycles and the plate read in a kinetic mode. EC50 determinations were carried out as described for the IC50 determinations. […]
The percentage inhibition was calculated using the formula below: […]
The values were graphed and analyzed using XLFit to obtain the EC50 value.

Structure (SMILES)	IC50 ([1]; read-out: IC50) [µM]	EC50 [2] [µM]	IC50 [1] [µM]
C=C[C@@H]1C[C@]1(NC(=O)[C@@H]1C[C@@H](Oc2nccc3ccccc23)CN1C(=O)[C@@H](NC(=O)Oc1ccc(C)cc1)C(C)(C)C)C(=O)NS(=O)(=O)C1(Cc2ccccc2)CC1 [Cmpd 200]	1 to 10		
C=C[C@@H]1C[C@]1(NC(=O)[C@@H]1C[C@@H](Oc2nccc3ccccc23)CN1C(=O)[C@@H](NC(=O)Oc1ccccc1)C(C)(C)C)C(=O)NS(=O)(=O)C1(Cc2ccccc2)CC1 [Cmpd 201]	1 to 10		
C=C[C@@H]1C[C@]1(NC(=O)[C@@H]1C[C@@H](Oc2nccc3ccccc23)CN1C(=O)[C@@H](NC(=O)Oc1ccc(F)cc1)C(C)(C)C)C(=O)NS(=O)(=O)C1(Cc2ccccc2)CC1 [Cmpd 202]	1 to 10		
C=C[C@@H]1C[C@]1(NC(=O)[C@@H]1C[C@@H](Oc2nccc3ccccc23)CN1C(=O)[C@@H](NC(=O)Oc1ccc(OC)cc1)C(C)(C)C)C(=O)NS(=O)(=O)C1(Cc2ccccc2)CC1 [Cmpd 203]	1 to 10		
C=C[C@@H]1C[C@]1(NC(=O)[C@@H]1C[C@@H](Oc2nccc3ccccc23)CN1C(=O)[C@@H](NC(=O)OCCOC)C(C)(C)C)C(=O)NS(=O)(=O)C1(Cc2ccccc2)CC1 [Cmpd 204]	1 to 10		
C=C[C@@H]1C[C@]1(NC(=O)[C@@H]1C[C@@H](Oc2nccc3ccccc23)CN1C(=O)[C@@H](NC(=O)OCC(C)(C)C)C(C)(C)C)C(=O)NS(=O)(=O)C1(Cc2ccccc2)CC1 [Cmpd 205]	0.1 to 1	0.1 to 1	
C=C[C@@H]1C[C@]1(NC(=O)[C@@H]1C[C@@H](Oc2nccc3ccccc23)CN1C(=O)[C@@H](NC(=O)OCCF)C(C)(C)C)C(=O)NS(=O)(=O)C1(Cc2ccccc2)CC1 [Cmpd 206]	0.1 to 1		
C=C[C@@H]1C[C@]1(NC(=O)[C@@H]1C[C@@H](Oc2nccc3ccccc23)CN1C(=O)[C@@H](NC(=O)Oc1ccccc1OC)C(C)(C)C)C(=O)NS(=O)(=O)C1(Cc2ccccc2)CC1 [Cmpd 207]	1 to 10		
C=C[C@@H]1C[C@]1(NC(=O)[C@@H]1C[C@@H](Oc2nccc3ccccc23)CN1C(=O)[C@@H](NC(=O)Oc1cccc(C(F)(F)F)c1)C(C)(C)C)C(=O)NS(=O)(=O)C1(Cc2ccccc2)CC1 [Cmpd 208]	1 to 10		
C=C[C@@H]1C[C@]1(NC(=O)[C@@H]1C[C@@H](Oc2nccc3ccccc23)CN1C(=O)[C@@H](NC(=O)O[C@@H]1C[C@H](C)CC[C@H]1C(C)C)C(C)(C)C)C(=O)NS(=O)(=O)C1(Cc2ccccc2)CC1 [Cmpd 209]	10 to 100	1 to 10	
C=C[C@@H]1C[C@]1(NC(=O)[C@@H]1C[C@@H](Oc2nccc3ccccc23)CN1C(=O)[C@@H](NC(=O)CC(C)(C)C)C(C)(C)C)C(=O)NS(=O)(=O)C1(Cc2ccccc2)CC1 [Cmpd 210]	1 to 10		
C=C[C@@H]1C[C@]1(NC(=O)[C@@H]1C[C@@H](Oc2nccc3ccccc23)CN1C(=O)[C@@H](NC(=O)COC)C(C)(C)C)C(=O)NS(=O)(=O)C1(Cc2ccccc2)CC1 [Cmpd 211]	1 to 10		
C=C[C@@H]1C[C@]1(NC(=O)[C@@H]1C[C@@H](Oc2nccc3ccccc23)CN1C(=O)[C@@H](NC(=O)CCOC)C(C)(C)C)C(=O)NS(=O)(=O)C1(Cc2ccccc2)CC1 [Cmpd 212]	1 to 10		
C=C[C@@H]1C[C@]1(NC(=O)[C@@H]1C[C@@H](Oc2nccc3ccccc23)CN1C(=O)[C@@H](NC(=O)[C@@H]1COc2ccccc2O1)C(C)(C)C)C(=O)NS(=O)(=O)C1(Cc2ccccc2)CC1 [Cmpd 213]	10 to 100		
C=C[C@@H]1C[C@]1(NC(=O)[C@@H]1C[C@@H](Oc2nccc3cc(OC)ccc23)CN1C(=O)[C@@H](NC(=O)NC(C)(C)C)C(C)(C)C)C(=O)NS(=O)(=O)C1(C)CC1 [Cmpd 217]		< 0.1	< 0.1
C=C[C@@H]1C[C@]1(NC(=O)[C@@H]1C[C@@H](Oc2nccc3cc(OC)ccc23)CN1C(=O)[C@@H](NC(=O)NC1CCCC1)C(C)(C)C)C(=O)NS(=O)(=O)C1(C)CC1 [Cmpd 218]	< 0.1	< 0.1	
C=C[C@@H]1C[C@]1(NC(=O)[C@@H]1C[C@@H](Oc2nccc3cc(OC)ccc23)CN1C(=O)[C@@H](NC(=O)NC(C)(C)CC)C(C)(C)C)C(=O)NS(=O)(=O)C1(C)CC1 [Cmpd 219]	< 0.1	< 0.1	
C=C[C@@H]1C[C@]1(NC(=O)[C@@H]1C[C@@H](Oc2nccc3cc(OC)ccc23)CN1C(=O)[C@@H](NC(=O)N1CCC1)C(C)(C)C)C(=O)NS(=O)(=O)C1(C)CC1 [Cmpd 220]	< 0.1	0.1 to 1	
C=C[C@@H]1C[C@]1(NC(=O)[C@@H]1C[C@@H](Oc2nccc3cc(OC)ccc23)CN1C(=O)[C@@H](NC(=O)OC(C)(C)C)C(C)(C)C)C(=O)NS(=O)(=O)C1(CC)CC1 [Cmpd 300, {1-[2-[1-(1-Ethyl-cyclopropanesulfonylaminocarbonyl)-2-vinyl-cyclopropylcarbamoyl]-4-(6-methoxy-isoquinolin-1-yloxy)-pyrrolidine-1-carbonyl]-2,2-dimethyl-propyl}-carbamic acid tert-butyl ester]	< 0.1	< 0.1	
C=C[C@@H]1C[C@]1(NC(=O)[C@@H]1C[C@@H](Oc2nccc3cc(OC)ccc23)CN1C(=O)[C@@H](NC(=O)OC(C)(C)C)C(C)(C)C)C(=O)NS(=O)(=O)C1(C)CC1 [Cmpd 301, (1-{4-(6-Methoxy-isoquinolin-1-yloxy)-2-[1-(1-methyl-cyclopropanesulfonylaminocarbonyl)-2-vinyl-cyclopropylcarbamoyl]-pyrrolidine-1-carbonyl}-2,2-dimethyl-propyl)-carbamic acid tert-butyl ester]	< 0.1	< 0.1	
C=C[C@@H]1C[C@]1(NC(=O)[C@@H]1C[C@@H](Oc2nc(-c3ccccc3)nc3ccccc23)CN1C(=O)[C@@H](N)C(C)(C)C)C(=O)NS(=O)(=O)C1(Cc2ccccc2)CC1 [Cmpd 603]	1 to 10		

Source: patent publication US7135462B2, “Hepatitis C virus inhibitors” (priority 2003, dated 2006)
